According to patent US9138398B2, “Cationic alcohols and uses thereof” (Living Proof, Inc., priority 2009, dated 2015):

Experiment: Contact angle measurements of hair fiber (Cahn DCA-312 tensiometer)
Details: 1.5% Example 15 in conditioner C2, 20 cycles, versus placebo conditioner C1
Text: As described previously, improving upon benefits such as hydrophobicity, shine and tactile properties leads to the perception of healthier, more conditioned hair. Contact angle measurement has proven to be a viable method to measure the degree of hydrophobicity of hair. In principle, it measures the angle at the point of contact of a liquid with a surface. If the surface is highly hydrophobic (such as virgin, untreated hair), the angle of the water droplet at the interface would be greater than 90°. Likewise, a hydrophilic surface would cause the water droplet to fall flat, and the angle would be close to 0°.
Virgin black hair tresses (1.5 g each, from International Hair Importers) were bleached once with a homogeneous mixture of Clairol Pure White 20V hydrogen peroxide solution (45 ml) and Clairol bleach powder Ultra Concentrate BW2000 (6.75 g) for 10 min at 50° C. The tresses were shampooed with a 7.5% Sodium Lauryl Sulfate solution twice and air-dried for 24 h. […]
Contact angle measurements were performed with a Cahn DCA-312 tensiometer. […] The water surface tension was determined with a platinum DuNuoy ring (Cat 14-812-5) to be 70.6 mN/m. […]
The hair fiber diameter was measured with a precision micrometer (Mitutoyo Cat 293-761-30). […] The advancing and receding contact angles were measured for each sample, with runs performed in triplicate.

C[N+](C)(CC[N+](C)(C)CC(O)COCC(F)(F)C(F)F)CC(O)COCC(F)(F)C(F)F (stereo not shown) [Example 15]
Change of contact angle of bleached hair (hydrophobicity), in words: significantly increased the contact angle
